# According to US20190133998A1, “TREATMENT OF TUMORS WITH INHIBITORS OF CXCL12 SIGNALING AND SUBT[…] OF CHEMOTHERAPEUTIC AGENTS” (THE GENERAL HOSPITAL CORPORATION, priority 2016, published 2019):
# Several values for one entry are separate records, joined by “and”; a condition that tells them apart may be missing. Identical values can stand only once. Like-named read-outs stand apart in the source and are kept apart here.
# Key:
# CXCR7 [1] = target: CXCR7 (Homo sapiens, UniProt P25106); conditions: TOV-112D cells
# Protocol: (§1) CXCR4, CXCR7, and CXCL12 expression in ovarian cancer cells: ID8 or TOV-112D cells were plated at 750,000 cells/well in 6-well plates. Conditions were WT, WT+AMD3100 (10 μM for ID8/5 μM for TOV-112D, MedChemExpress HY-50912 and AbCam ab1207180) 16 hrs, and WT+AMD3100 4 hrs. 2× drug stocks were made in complete DMEM, final volume per well was 2 mL. GolgiPlug (BD Pharmingen) was added to all wells 3 hrs prior to harvesting according to manufacturer's protocol. CXCL12, CXCR4, and CXCR7 expression was measured by Flow Cytometry. Antibodies: anti-h/mCXCL12/SDF-1 APC (IC350A, RandD Systems), anti-mCXCR4/CD184 PE (551966, BD Bioscience), anti-hCXCR4/CD184 PE (306506, BioLegend), anti-h/mCXCR7 PE-Cy7 (331115, BioLegend).
# (§2) Flow Cytometry: Cells were harvested using enzyme free dissociation buffer (Thermo Fisher Scientific 13151014) and counted using Trypan Blue viability dye (Corning). Equal numbers of cells were labeled with antibody for surface markers. Thereafter cells were stained for viability and where needed with secondary antibody. […] All incubation steps were performed at 4° C. on a rocker in the dark. Cells were washed 2× before analysis in cell staining buffer consisting of PBS containing 0.5% BSA, 0.02% Sodium Azide, and 2 mM EDTA. Analysis of samples in duplicate was done with a BD Fortessa collecting a minimum of 10,000 events per sample and using FlowJo software.
# CXCR7 [2] = target: CXCR7 (Mus musculus, UniProt P56485); conditions: ID8 cells
# Protocol: as §1, §2
# CXCR4 [3] = target: CXCR4 (Homo sapiens, UniProt P61073); conditions: TOV-112D cells; for CXCR4 reduced by: AMD3100 5 μM, normalized
# Protocol: as §1, §2
# CXCL12 = conditions: for CXCL12 expression reduced by: 4 or 18 hours, normalized; for overall expression of CXCL12, significance of change: AMD3100 for either 4 or 18 hours
# Protocol: as §1, §2
# [4] = tested on: ID8 murine ovarian cancer cells; test: cells
# Protocol: (§3) Drug Titrations: TAXOL was titered to determine the concentrations used in combination with AMD3100. Cells were cultured in 96-well black assay plates with optically clear bottoms (500 and 2500 cells per well were tested), including a standard curve plate. ID8 cells were then exposed to increasing concentrations of paclitaxel (1, 0.5, 0.15, 0.05, 0.015, and 0.005 μM), and TOV cells were exposed to 15, 5, and 1 nM Taxol for 48 or 96 hr. Proliferation was measured by measuring the amount of dsDNA using CyQuant reagent and read on a Perkin Elmer Envision 2103. AMD3100 (50, 25, 10, 5, 2.5, and 1 μM) was titered in the same manner. Each condition was done in triplicate. Drugs were not replenished during any of the experiments. Data was analyzed in Prism 7.
# (§4) Simultaneous Delivery of Small Molecules and Chemotherapy: To determine the effect of AMD3100 alone or in combination with TAXOL, cell proliferation was measured by seeding 2500 TOV cells and 500 ID8 cell per well in a clear bottom 96-well black assay plates. AMD3100 (final concentrations: 10 μM for ID8 and 2.5 μM for TOV) and Paclitaxel (final concentrations: 15 and 5 nM for ID8 cells and 5 and 1 nM for TOV cells) were mixed with DMEM. 100 μL of the mixture was added to the cells. Each condition was done in triplicate. Plates were incubated at 37° C. with 5% CO2 for 72 hr (ID8) and 96 hr (TOV-112D). Standard curve plates were washed the same day the experiment was done. Plates were stored at −80° C. after washing and proliferation rate was measured then by CyQuant assay.
# TOV-112D cells [5] = test: Soft-agar colony formation, TOV-112D; type: cell-based, human
# Protocol: (§5) ID8 and TOV Colony Formation in The Presence of Small Molecules and/or Chemotherapy: Bottom Layer Hard Agar: 2×DMEM and 0.8% agar stock was prepared and adjusted to 42° C. in a water bath for 30 min. The agar and 2×DMEM were mixed (1:2). 500 μL of the mixture was then added to each well of a 24 well plate, and the plate was rocked to distribute evenly and allowed to solidify at room temperature in a tissue culture hood. Upper Layer Soft Agar: 0.6% agar stock was prepared adjusted to 42° C. in a water bath for 30 min. During this time, ID8 cells were trypsinized, and 40,000 cells per mL suspension in 1×DMEM was made. Cell suspensions were then mixed with soft agar stock (1:2) and 500 μL of the mixture was then added to each well. Each condition was in triplicate.
# […] 100 μL of each drug was added to the relative wells in triplicate. Plates were then incubated in a humidified incubator with […] for 20-30 days. At the end of the experiment, each well was stained with 0.005% crystal violet in 15% ethanol (140 μL per well) and plates were incubated again for several hours then photos were taken using a microscope. ID8 Colonies equal or bigger […] and TOV colonies equal or bigger than […] were counted using Image J software.
# CXCR4 [6] = target: CXCR4 (Mus musculus, UniProt P70658); conditions: ID8 cells; for expression of CXCR4 reduced by: AMD3100 10 μM, normalized, negative control 0, untreated 100
# [7] = tested on: TOV-112D human ovarian cancer cells; test: cells
# Protocol: as §3
# as §4, with “Plates were incubated at 37° C. with 5% CO2 for 72 hr (ID8) and 96 hr (TOV-112D).” left out
# 40L = test: Survival in intraperitoneal malignant mesothelioma model, 40L; type: in vivo; conditions: 40L model, C57BL/6 mice; IP once a week for four weeks; AMD3100 1 mg/kg, VIC-008 20 μg per mouse
# Protocol: (§6) Intraperitoneal malignant mesothelioma (MM) models were established in immunocompetent C57BL/6 mice using syngeneic 40L and AE17 cell lines. Here, we tested the effect of AMD3100 and VIC-008, alone or in combination, on mouse survival in the mesothelioma-bearing mice. […], alone, was administered at 20 μg per mouse intraperitoneally (IP) once a week for four successive weeks. AMD3100 was administered at 1 mg/kg of mouse body weight via IP injection once a week for four successive weeks.
# ID8-Luc cells = conditions: C57/B6 mice, 1 mg/kg IP every 72 hours (subtherapeutic)
# Protocol: Six- to eight-week old C57/B6 mice were injected with 5e6 ID8-Luc cells. The presence of the tumor was confirmed by luciferase imaging. The tumor bearing mice were treated with 1 mg/kg AMD-3100 by intraperitoneal (IP) injection every 72 hours or with TAXOL® (10 mg/ml).
# Six- to eight-week old C57/B16 mice were injected with 5e6 ID8-Luc cells. The presence of the tumor was confirmed by luciferase imaging. The tumor bearing mice were treated with 1 mg/kg AMD-3100 by IP injection every 72 hours. In the combination treatment, the AMD3100 (1 mg/kg) and ruxolitinib (30 mg/kg) were administered concurrently but not simultaneously (i.e., administration was staggered).
# AE17 = test: Survival in intraperitoneal malignant mesothelioma model, AE17; type: in vivo; conditions: C57BL/6 mice, IP once a week for four weeks, AMD3100 1 mg/kg, VIC-008 20 μg per mouse
# Protocol: as §6
# ID8 cells [8] = test: Soft-agar colony formation, ID8; type: cell-based, murine
# Protocol: as §5
# Drug-DMEM stocks were made to achieve the proper concentrations in 1.1 mL, the total volume of each well: AMD3100 (10 μM and 1 μM for ID8 cells, 5 μM and 2.5 μM for TOV cells) and TAXOL (0.015 μM and 0.005 μM). 100 μL of each drug was added to the relative wells in triplicate. Plates were then incubated in a humidified incubator with […] for 20-30 days. At the end of the experiment, each well was stained with 0.005% crystal violet in 15% ethanol (140 μL per well) and plates were incubated again for several hours then photos were taken using a microscope. ID8 Colonies equal or bigger […] and TOV colonies equal or bigger than […] were counted using Image J software.
# TOV-112D cells [9] = tested on: TOV-112D cells
# Protocol: (§7) Sequential Delivery of Small Molecules and Chemotherapy: ID8 cells were exposed to AMD3100 in a 6 well plate (2.5×10^5 cells/well) for 72 hr. Cells were then washed and counted. Cell viability was checked by propidium iodide. For each condition, 500 cells per well of viable ID8 cells were then seeded into a 96 well black assay plate. ID8 cells were then incubated in DMEM containing a carrier, AMD3100 10 μM, TAXOL 0.005 μM, or both for another 72 hr. For TOV-112D cells, initial 72 hr incubation was with AMD3100 5 μM, followed by 96 hr incubation in media containing AMD3100 5 μM, TAXOL 1 nM, or both. At the conclusion of the experiment, plates were washed and dsDNA was measured via CyQuant assay.
# ID8 cells [10] = tested on: ID8 cells
# Protocol: as §7
# human ovarian cancer = conditions: reported; read-out: IC50 of paclitaxel in human ovarian cancer; cited from earlier work
# [11] = AMD3100 for either 4 or 18 hours
# Sequence of CXCR4 (Homo sapiens, UniProt P61073) (P61073 whole entry): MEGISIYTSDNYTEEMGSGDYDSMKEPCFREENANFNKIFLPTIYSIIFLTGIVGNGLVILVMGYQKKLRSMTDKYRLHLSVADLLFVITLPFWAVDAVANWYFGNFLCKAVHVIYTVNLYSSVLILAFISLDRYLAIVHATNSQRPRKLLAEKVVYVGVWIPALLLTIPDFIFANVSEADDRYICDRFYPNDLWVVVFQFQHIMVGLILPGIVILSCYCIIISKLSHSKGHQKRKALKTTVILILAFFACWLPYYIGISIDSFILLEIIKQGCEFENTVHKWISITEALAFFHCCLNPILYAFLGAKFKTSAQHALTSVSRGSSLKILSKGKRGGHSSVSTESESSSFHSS
# Sequence of CXCR4 (Mus musculus, UniProt P70658) (P70658 whole entry): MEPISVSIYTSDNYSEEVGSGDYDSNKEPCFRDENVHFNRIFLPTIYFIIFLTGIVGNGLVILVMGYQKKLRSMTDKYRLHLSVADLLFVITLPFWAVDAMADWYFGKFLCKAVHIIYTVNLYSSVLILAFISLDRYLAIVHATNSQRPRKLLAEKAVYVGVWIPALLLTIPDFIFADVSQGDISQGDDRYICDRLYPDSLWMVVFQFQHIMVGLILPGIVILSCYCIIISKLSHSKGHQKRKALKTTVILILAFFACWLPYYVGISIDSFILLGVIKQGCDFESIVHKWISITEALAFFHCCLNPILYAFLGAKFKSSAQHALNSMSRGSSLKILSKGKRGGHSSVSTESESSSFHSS
# Sequence of CXCR7 (Homo sapiens, UniProt P25106) (P25106 whole entry): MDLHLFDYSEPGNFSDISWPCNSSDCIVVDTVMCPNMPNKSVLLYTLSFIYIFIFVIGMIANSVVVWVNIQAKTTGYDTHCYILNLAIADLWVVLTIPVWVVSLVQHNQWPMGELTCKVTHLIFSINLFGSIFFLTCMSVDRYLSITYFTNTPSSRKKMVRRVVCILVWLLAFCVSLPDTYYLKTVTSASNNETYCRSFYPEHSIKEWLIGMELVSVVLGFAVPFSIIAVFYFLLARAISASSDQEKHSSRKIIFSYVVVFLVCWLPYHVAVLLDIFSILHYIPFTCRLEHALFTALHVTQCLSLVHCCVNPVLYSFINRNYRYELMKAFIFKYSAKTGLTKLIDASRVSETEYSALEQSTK
# Sequence of CXCR7 (Mus musculus, UniProt P56485) (P56485 whole entry): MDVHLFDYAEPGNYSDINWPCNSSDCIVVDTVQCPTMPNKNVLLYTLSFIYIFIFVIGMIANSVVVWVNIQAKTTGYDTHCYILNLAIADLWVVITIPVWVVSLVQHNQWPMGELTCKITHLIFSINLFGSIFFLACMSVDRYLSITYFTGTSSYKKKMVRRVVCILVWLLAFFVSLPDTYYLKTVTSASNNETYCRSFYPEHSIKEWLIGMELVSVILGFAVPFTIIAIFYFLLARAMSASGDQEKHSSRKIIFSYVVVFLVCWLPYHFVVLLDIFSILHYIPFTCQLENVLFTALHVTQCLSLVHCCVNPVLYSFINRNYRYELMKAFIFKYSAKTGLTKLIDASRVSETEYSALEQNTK
molecule,measurement,setting,value
Plerixafor octahydrochioride [AMD3100],CXCR7 expression,"CXCR7 [1]; AMD3100 5 μM, 18 hours, normalized",returned to basal levels
same,CXCR7 expression increased by,"CXCR7 [1]; AMD3100 5 μM, after 4 hours, normalized",20%
same,"surface expression of CXCR7, significance of change",CXCR7 [1]; [11],did not significantly alter
same,CXCR7 expression increased by,"CXCR7 [2]; AMD3100 10 μM, 4 or 18 hours, normalized",6%-11
same,"surface expression of CXCR7, significance of change",CXCR7 [2]; [11],did not significantly alter
same,CXCR4 reduced by,CXCR4 [3]; 4 hours,13%
same,CXCR4 reduced by,CXCR4 [3]; 18 hours,4%
same,"surface expression of CXCR4, significance of change",CXCR4 [3]; [11],did not significantly alter
same,CXCL12 expression reduced by,"CXCL12; ID8 cells, AMD3100 10 μM",9-10%
same,"overall expression of CXCL12, significance of change",CXCL12; ID8 cells,did not significantly alter
same,CXCL12 expression reduced by,"CXCL12; TOV-112D cells, AMD3100 5 μM",5-7%
same,"overall expression of CXCL12, significance of change",CXCL12; TOV-112D cells,did not significantly alter
same,ID8 cell growth inhibition,"[4]; AMD3100 10 μM alone, 72 hours",did not significantly inhibit
same,colony formation,"TOV-112D cells [5]; TOV-112D, AMD3100 2.5 μM",did not reduce colony formation
same,expression of CXCR4 reduced by,CXCR4 [6]; 4 hours,24.5%
same,expression of CXCR4 reduced by,CXCR4 [6]; 18 hours,23.5%
same,"surface expression of CXCR4, significance of change",CXCR4 [6]; [11],did not significantly alter
same,limited cell growth by,"[7]; TOV-112D cells, AMD3100 2.5 μM alone",24.5%
same,animal survival compared to saline control,40L,modest benefit to survival
same,survival of the tumor bearing mice,ID8-Luc cells,extends the survival
same,animal survival compared to saline control,AE17,modest benefit to survival
same,decreased colony formation by,"ID8 cells [8]; ID8, AMD3100 1 M (so in the source)",16%
same,decreased colony formation by,"ID8 cells [8]; ID8, AMD3100 10 M (so in the source)",44%
same,sensitization of cells by AMD3100 pre-treatment,TOV-112D cells [9],did not significantly sensitize
same,proliferation reduced by,"TOV-112D cells [9]; AMD3100 5 μM 72 hr, then re-plated in AMD3100 96 hrs",79.5%
same,proliferation reduced by,"TOV-112D cells [9]; AMD3100 5 μM 72 hr, then re-plated in control media 96 hrs",49%
same,proliferation reduced by,"TOV-112D cells [9]; control media, then AMD3100 5 μM 96 hr",51%
same,sensitization of cells by AMD3100 pre-treatment,TOV-112D cells [9]; listed as AMD-3100,significantly sensitized
same,proliferated more than untreated cells,"ID8 cells [10]; ID8, no pre-treatment, re-plated in AMD3100 10 μM media 72 hr, not significant",22%
same,"proliferation reduced by, vs untreated control cells","ID8 cells [10]; ID8, pre-treated with AMD3100 72 hr, reseeded in AMD3100 10 μM 72 hr",48%
same,increased growth,"ID8 cells [10]; ID8, treated with AMD3100 and then incubated without drug",22%
same,sensitization of cells to subsequent TAXOL by AMD3100 pre-treatment,"ID8 cells [10]; ID8, vs untreated control cells then incubated with TAXOL",did not significantly sensitize
"CC(=O)O[C@H]1C(=O)[C@@]2(C)[C@H]([C@H](OC(=O)c3ccccc3)[C@]3(O)C[C@H](OC(=O)[C@H](O)[C@@H](NC(=O)c4ccccc4)c4ccccc4)C(C)=C1C3(C)C)[C@]1(OC(C)=O)CO[C@@H]1C[C@@H]2O [TAXOL, Paclitaxel]",IC50,"[4]; Mus musculus, ID8, 72 h, read-out: IC50, ID8 cell proliferation",5 nM
same,inhibition at 0.005 µM,"[4]; Mus musculus, ID8, read-out: proliferation inhibition",50%
same,IC50,"[4]; Mus musculus, read-out: IC50, ID8 murine ovarian cancer cells",5 nM
same,TOV-112D colony formation,TOV-112D cells [5]; TAXOL 5 nM,completely preventing
same,reduced colony formation by,"TOV-112D cells [5]; TOV-112D, TAXOL 1 nM alone, non-significant",20%
same,IC50,"[7]; Homo sapiens, TOV112D, read-out: IC50, human ovarian cancer cells (TOV)",2.5 nM
same,inhibition at 0.005 µM,"[7]; Homo sapiens, TOV112D, read-out: proliferation inhibition",89%
same,TOV-112D cell proliferation inhibition,"[7]; TAXOL 1 nM, after 72 hours",did not significantly inhibit
same,IC50,human ovarian cancer,≤ 3000 nM
same,reduced ID8 colony formation by,ID8 cells [8]; TAXOL 5 nM,56% and 57%
same,reduced ID8 colony formation by,ID8 cells [8]; TAXOL 15 nM,94%
same,proliferation reduced by,"TOV-112D cells [9]; control media, then TAXOL 1 nM 96 hr",24%
same,cell proliferation reduced by,"ID8 cells [10]; ID8, no AMD3100 pre-treatment, re-plated in TAXOL 0.005 μM 72 hr",50%
